# Results reported in ChEMBL document CHEMBL1201862, “PubChem BioAssay data set” (2004).
#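 Dose response: 5 concentrations. Exposure: 48 h. Format: 96-well plates. Endpoint: linear interpolation; highest concentration if not reached. GI50 = concentration required for 50% inhibition of growth.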 Active and inactive are the calls of the source. Cut-off read from the data, not from the text of the source: active = GI50 up to about 1.1 µM and inactive = higher.
# Experiments:
# Test in all cases: growth of human tumour cells (NCI), 48 h
# SNB-19 = tested on: SNB-19
# T47D = tested on: T47D
# SF-295 = tested on: SF-295
# NCI-H522 = tested on: NCI-H522
# Hs-578T = tested on: Hs-578T
# A498 = tested on: A498
# OVCAR-8 = tested on: OVCAR-8
# HT-29 = tested on: HT-29
# UACC-257 = tested on: UACC-257
# SN12C = tested on: SN12C
# LOX IMVI = tested on: LOX IMVI
# SNB-75 = tested on: SNB-75
# TK-10 = tested on: TK-10
# BT-549 = tested on: BT-549
# M14 = tested on: M14
# HCT-15 = tested on: HCT-15
# NCI-H226 = tested on: NCI-H226
# NCI-H23 = tested on: NCI-H23
# 786-0 = tested on: 786-0
# HCC 2998 = tested on: HCC 2998
Structure (SMILES),GI50 (SNB-19),GI50 (T47D),GI50 (SF-295),GI50 (NCI-H522),GI50 (Hs-578T),GI50 (A498),GI50 (OVCAR-8),GI50 (HT-29),GI50 (UACC-257),GI50 (SN12C),GI50 (LOX IMVI),GI50 (SNB-75),GI50 (TK-10),GI50 (BT-549),GI50 (M14),GI50 (HCT-15),GI50 (NCI-H226),GI50 (NCI-H23),GI50 (786-0),GI50 (HCC 2998)
O=C(O)c1ccc(NCc2nc3cc4ccccc4cc3[nH]2)cc1,> 100 µM (inactive),> 100 µM (inactive),> 100 µM (inactive),> 100 µM (inactive),> 100 µM (inactive),> 100 µM (inactive),> 100 µM (inactive),> 100 µM (inactive),2.63 µM (inactive),> 88.5 µM (inactive),> 100 µM (inactive),98.6 µM (inactive),> 100 µM (inactive),> 100 µM (inactive),> 100 µM (inactive),26.7 µM,> 100 µM (inactive),> 100 µM (inactive),> 100 µM (inactive),87.9 µM (inactive)
CCN(CC)c1ccc2cc(-c3nc4ccccc4n3C)c(=O)oc2c1,0.408 µM (active),> 100 µM (inactive),0.285 µM (active),0.205 µM (active),0.269 µM (active),0.0163 µM (active),0.497 µM (active),0.259 µM (active),1.17 µM (inactive),0.713 µM (active),0.495 µM (active),0.0177 µM (active),> 100 µM (inactive),0.274 µM (active),0.355 µM (active),0.17 µM,0.302 µM (active),0.334 µM (active),0.381 µM (active),0.685 µM (active)
CN(C)Cc1cc(C(C)(C)C)ccc1-c1ccc(C(C)(C)C)cc1CN(C)C,> 100 µM (inactive),> 100 µM (inactive),> 100 µM (inactive),57.8 µM (inactive),> 100 µM (inactive),75.3 µM (inactive),> 100 µM (inactive),35 µM (inactive),37.1 µM (inactive),> 100 µM (inactive),> 100 µM (inactive),88.1 µM (inactive),> 100 µM (inactive),> 100 µM (inactive),41.6 µM (inactive),> 100 µM,> 100 µM (inactive),> 100 µM (inactive),> 100 µM (inactive),10.2 µM (inactive)
ClCCCSSCCCCl,> 100 µM (inactive),> 100 µM (inactive),37.5 µM (inactive),25.9 µM (inactive),17.8 µM (inactive),38.7 µM (inactive),23.6 µM (inactive),27.4 µM (inactive),36.8 µM (inactive),29.4 µM (inactive),27.2 µM (inactive),37.8 µM (inactive),> 59.4 µM (inactive),21.5 µM (inactive),38.4 µM (inactive),22 µM,> 79.4 µM (inactive),38.3 µM (inactive),30.2 µM (inactive),36.1 µM (inactive)
OC1[C@@H]2[C@@H](O)[C@H](O)[C@@H](O)N2C[C@@H]1O (stereo not given in full),> 100 µM (inactive),> 100 µM (inactive),> 100 µM (inactive),> 100 µM (inactive),> 100 µM (inactive),> 100 µM (inactive),> 100 µM (inactive),> 100 µM (inactive),> 100 µM (inactive),> 100 µM (inactive),> 100 µM (inactive),> 100 µM (inactive),> 100 µM (inactive),> 100 µM (inactive),> 100 µM (inactive),> 100 µM,> 100 µM (inactive),> 100 µM (inactive),> 100 µM (inactive),> 100 µM (inactive)
CCCCCCCCCCCOCCC1C(C(C)OCCN2CCCC2)OC2OC(C)(C)OC21 (stereo not given),5.56 µM (inactive),2.24 µM (inactive),2.32 µM (inactive),0.853 µM (active),2.68 µM (inactive),13 µM (inactive),3.13 µM (inactive),1.82 µM (inactive),1.98 µM (inactive),2.53 µM (inactive),1.46 µM (inactive),2.47 µM (inactive),2.37 µM (inactive),3.13 µM (inactive),0.869 µM (active),2.04 µM,8.79 µM (inactive),3.91 µM (inactive),2.62 µM (inactive),1.69 µM (inactive)
COc1cc2[nH]c3c(c2cc1OC)CCN[C@@]31CC[C@@]2(CC3c4c(cc(OC)c(O)c42)CCN3C)C[C@@H]1OC (stereo not given in full),> 81.1 µM (inactive),20.5 µM (inactive),21.2 µM (inactive),29.2 µM (inactive),19.7 µM (inactive),32 µM (inactive),30.9 µM (inactive),26.2 µM (inactive),17.8 µM (inactive),71.9 µM (inactive),18.8 µM (inactive),18.3 µM (inactive),29.8 µM (inactive),25.2 µM (inactive),18 µM (inactive),30.3 µM,46.5 µM (inactive),> 79.1 µM (inactive),50.7 µM (inactive),31.9 µM (inactive)
N=c1c2c(=S)n(-c3ccccc3)c(=S)n(-c3ccccc3)c2nc(SCCCN2CCCCC2)n1-c1ccccc1,2.91 µM (inactive),2.14 µM (inactive),4.91 µM (inactive),1.53 µM (inactive),2.79 µM (inactive),2.52 µM (inactive),1.85 µM (inactive),2.09 µM (inactive),1.75 µM (inactive),1.78 µM (inactive),0.91 µM (active),1.73 µM (inactive),1.71 µM (inactive),1.75 µM (inactive),1.69 µM (inactive),1.55 µM,2.35 µM (inactive),1.98 µM (inactive),1.09 µM (active),1.49 µM (inactive)
S=C1N=C2C(=N1)n1c3c(c4ccccc41)CCCC23 (stereo not given),56.8 µM (inactive),26 µM (inactive),38.6 µM (inactive),22.1 µM (inactive),44.1 µM (inactive),> 100 µM (inactive),32.1 µM (inactive),35.1 µM (inactive),47.4 µM (inactive),29.4 µM (inactive),14.6 µM (inactive),> 100 µM (inactive),> 100 µM (inactive),59.2 µM (inactive),> 100 µM (inactive),46.3 µM,34.9 µM (inactive),48.3 µM (inactive),15.5 µM (inactive),> 100 µM (inactive)
COc1ccc(/C=C(/C)[N+](=O)[O-])cc1,5.86 µM (inactive),3.72 µM (inactive),6.84 µM (inactive),0.292 µM (active),9.02 µM (inactive),2.7 µM (inactive),2.22 µM (inactive),3.1 µM (inactive),1.5 µM (inactive),2.1 µM (inactive),1.48 µM (inactive),1.26 µM (inactive),1.82 µM (inactive),2.75 µM (inactive),3.18 µM (inactive),2.28 µM,21.1 µM (inactive),2.03 µM (inactive),1.26 µM (inactive),1.77 µM (inactive)
CC1=NN(C(=O)CC(=O)Nc2ccccc2C)C(=O)C1/N=N\c1ccc(S(=O)(=O)c2ccc(/N=N/C3C(=O)N(C(=O)CC(=O)Nc4ccccc4C)N=C3C)cc2)cc1 (stereo not given),> 100 µM (inactive),> 100 µM (inactive),> 100 µM (inactive),46 µM (inactive),85.9 µM (inactive),> 100 µM (inactive),74.6 µM (inactive),> 100 µM (inactive),> 100 µM (inactive),> 100 µM (inactive),> 100 µM (inactive),> 100 µM (inactive),> 100 µM (inactive),> 100 µM (inactive),> 100 µM (inactive),> 100 µM,> 100 µM (inactive),> 100 µM (inactive),> 100 µM (inactive),> 100 µM (inactive)
O=C(O)CCC(O)=C1S(=O)(=O)OCCOS1(=O)=O,> 100 µM (inactive),> 100 µM (inactive),> 100 µM (inactive),> 100 µM (inactive),> 100 µM (inactive),> 100 µM (inactive),> 100 µM (inactive),> 100 µM (inactive),> 100 µM (inactive),> 100 µM (inactive),> 100 µM (inactive),> 100 µM (inactive),> 100 µM (inactive),> 100 µM (inactive),> 100 µM (inactive),> 100 µM,> 100 µM (inactive),> 100 µM (inactive),> 100 µM (inactive),> 100 µM (inactive)
O=[N+]([O-])c1ccc(/N=N\c2c(O)c(S(=O)(=O)O)cc3cc(S(=O)(=O)O)ccc23)cc1,> 100 µM (inactive),> 100 µM (inactive),> 100 µM (inactive),> 100 µM (inactive),> 100 µM (inactive),> 100 µM (inactive),> 100 µM (inactive),> 100 µM (inactive),> 100 µM (inactive),> 100 µM (inactive),> 100 µM (inactive),> 100 µM (inactive),> 100 µM (inactive),> 100 µM (inactive),> 100 µM (inactive),> 100 µM,> 100 µM (inactive),> 100 µM (inactive),> 100 µM (inactive),> 100 µM (inactive)
Cc1occc1/C(S)=N\c1ccc(Cl)c(C(=O)OCC2CC2)c1,54.2 µM (inactive),35 µM (inactive),29.4 µM (inactive),21.9 µM (inactive),46.9 µM (inactive),35.8 µM (inactive),39.9 µM (inactive),34.7 µM (inactive),22.3 µM (inactive),34.9 µM (inactive),29.2 µM (inactive),23.9 µM (inactive),34.8 µM (inactive),22.7 µM (inactive),85.5 µM (inactive),31.5 µM,53.2 µM (inactive),58.6 µM (inactive),44.9 µM (inactive),26.7 µM (inactive)
